Assay results from BigSolDB 2.1.

O=c1[nH]c2ccccc2n1CCCN1CCC(n2c(=O)[nH]c3cc(Cl)ccc32)CC1
solubility (mole fraction)
Conditions | 278.15 K | 283.15 K | 288.15 K | 293.15 K | 298.15 K | 303.15 K | 308.15 K | 313.15 K | 318.15 K
in DMAc | 0.000805 | 0.000971 | 0.00116 | 0.00136 | 0.00158 | 0.00182 | 0.00208 | 0.00234 | 0.00262
in DMF | 7.44e-05 | 9.91e-05 | 0.000131 | 0.00017 | 0.000223 | 0.000282 | 0.000369 | 0.000471 | 0.000575
in DMSO | 0.000283 | 0.00034 | 0.000408 | 0.000489 | 0.000584 | 0.000698 | 0.000832 | 0.00099 | 0.00118
in acetonitrile | 1.2e-07 | 1.85e-07 | 2.54e-07 | 3.43e-07 | 4.6e-07 | 6.68e-07 | 8.73e-07 | 1.07e-06 | 1.46e-06
in ethanol | 8.55e-06 | 1.09e-05 | 1.47e-05 | 1.86e-05 | 2.28e-05 | 2.93e-05 | 3.6e-05 | 4.53e-05 | 5.35e-05
in ethylene glycol | 1.11e-05 | 1.43e-05 | 1.84e-05 | 2.21e-05 | 2.93e-05 | 3.47e-05 | 4.43e-05 | 5.56e-05 | 6.6e-05
in isobutanol | 1.05e-05 | 1.35e-05 | 1.8e-05 | 2.23e-05 | 2.83e-05 | 3.67e-05 | 4.58e-05 | 5.68e-05 | 7.17e-05
in isopropanol | 7.95e-06 | 9.92e-06 | 1.45e-05 | 1.84e-05 | 2.27e-05 | 2.74e-05 | 3.45e-05 | 4.33e-05 | 5.42e-05
in methanol | 8.19e-06 | 9.89e-06 | 1.21e-05 | 1.6e-05 | 2.07e-05 | 2.56e-05 | 3.17e-05 | 4.03e-05 | 4.9e-05
in n-butanol | 1.23e-05 | 1.64e-05 | 2.19e-05 | 2.85e-05 | 3.66e-05 | 4.45e-05 | 5.47e-05 | 7.02e-05 | 8.57e-05
in n-propanol | 1.18e-05 | 1.45e-05 | 1.9e-05 | 2.55e-05 | 3.25e-05 | 4.17e-05 | 5.05e-05 | 6.43e-05 | 7.85e-05
in water | 8.77e-08 | 1.05e-07 | 1.38e-07 | 1.75e-07 | 2.22e-07 | 2.76e-07 | 3.35e-07 | 4.16e-07 | 5.11e-07
